Reference: patent US4882349A, “Pyrrolacetic amides having antiinflammatory activity” (priority 1982, dated 1989)
Like-named read-outs stand apart in the source and are kept apart here.

Tests used:
[1] = tested on: phenyl-p-quinone-induced writhing (abdominal contractions); assay: phenylquinone-induced writhing test, oral administration 1-24 h before phenyl-quinone (duration of analgesia); type: in vivo, male Wistar rats
Description: Male Wistar rats weighing 110±5 g were caged for 10 days at 22±1° C. and given a balanced diet with free access to water. Twenty-four hours before the experiment the animals were randomized into groups of 10 and fasted for 14 hours but with free access to water. Each dose was tested in 3 groups of rats. […] alone (0.5% carboxymethyl-cellulose in physiological saline) in the control animals, each rat was given 2 ml of a 5% absolute ethanol aqueous solution containing 0.36% of phenyl-p-quinone (Sigma Chemical Company) in order to provoke writhings. Fifteen minutes after administration of phenyl-p-quinone the number of contractions were counted for 20 minutes. The inhibiting effect of the compounds under examination on the abdominal contractions induced by phenyl-p-quinone was calculated by the following formula: % protection= [formula]

[2] = tested on: brewers' yeast-induced hyperthermia; assay: antipyretic activity, brewers' yeast-induced hyperthermia; type: in vivo, albino male Wistar rats
Description: The animals were caged under the same conditions as those described in the preceding tests. Five hours following […], determined by a rectal probe connected to a YSI thermometer (73 ATP model, Yellow Springs Instrument Company) were selected for the experiment. The animals were then randomized into groups of 10 and the compounds under examination and the vehicle were administered via the oral and parenteral routes testing each dose in two groups. Body temperature was determined at one, two and three hours after administration of the substances. […]

solubility = type: physicochemical
gastric lesions = type: in vivo, male Wistar rats; conditions: 4 consecutive days; for gastric damage index: I=mean no. of lesions+mean of severity+% incidence/10; for mean severity: scale 0 (no lesion) to 5 (perforations)
Description: Male Wistar rats weighing 180 g were randomized into groups of 10. Three doses of each compound were administered. One group received the vehicle alone (10 ml/kg b.w.). Each dose was given orally for four days consecutively and the rats were sacrificed on the fifth day for necropsy. The ulcerogenic effect was evaluated by the following scale:
(1) each haemorrhagic point at least 1 mm in diameter was scored as 1 lesion,
(2) haemorrhagic points less than 1 mm in diameter were scored in the following manner:
(c) 20 to 29=three lesions
By means of this scale it was possible to obtain the gastric damage index:
I=mean no. of lesions+mean of severity+% incidence/10

With `COc1ccccc1OC(=O)CNC(=O)Cc1ccc(C(=O)c2ccc(C)cc2)n1C` [Compound 1-d, 1-methyl-5-p-toluoylpyrrole-2-acetamidoacetic acid guaiacyl ester] the “% Protection” value ([1]; 10 mg/Kg oral, 1 h before phenyl-quinone) was 55.7%, the “% Protection” value ([1]; 10 mg/Kg oral, 2 h before phenyl-quinone) was 43.3% and the “% Protection” value ([1]; 10 mg/Kg oral, 4 h before phenyl-quinone) was 40.1%. The “% Protection” value ([1]; 10 mg/Kg oral, 6 h before phenyl-quinone) was 44.0%, the “% Protection” value ([1]; 10 mg/Kg oral, 8 h before phenyl-quinone) was 32.0% and the “% Protection” value ([1]; 10 mg/Kg oral, 16 h before phenyl-quinone) was 12.1%. For the same compound, the “% Protection” value ([1]; 10 mg/Kg oral, 24 h before phenyl-quinone) was 10.0%, the “% Protection” value ([1]; 20 mg/Kg oral, 1 h before phenyl-quinone) was 78.1% and the “% Protection” value ([1]; 20 mg/Kg oral, 2 h before phenyl-quinone) was 80.6%. For the same compound, the “% Protection” value ([1]; 20 mg/Kg oral, 4 h before phenyl-quinone) was 70.5%, the “% Protection” value ([1]; 20 mg/Kg oral, 6 h before phenyl-quinone) was 66.3% and the “% Protection” value ([1]; 20 mg/Kg oral, 8 h before phenyl-quinone) was 71.0%. The “% Protection” value ([1]; 20 mg/Kg oral, 16 h before phenyl-quinone) was 23.6%, the “% Protection” value ([1]; 20 mg/Kg oral, 24 h before phenyl-quinone) was 25.0% and the “% Protection” value ([1]; 50 mg/Kg oral, 1 h before phenyl-quinone) was 86.4%. For the same compound, the “% Protection” value ([1]; 50 mg/Kg oral, 2 h before phenyl-quinone) was 87.0%, the “% Protection” value ([1]; 50 mg/Kg oral, 4 h before phenyl-quinone) was 81.5% and the “% Protection” value ([1]; 50 mg/Kg oral, 6 h before phenyl-quinone) was 76.8%. For the same compound, the “% Protection” value ([1]; 50 mg/Kg oral, 8 h before phenyl-quinone) was 75.0%, the “% Protection” value ([1]; 50 mg/Kg oral, 16 h before phenyl-quinone) was 60.7% and the “% Protection” value ([1]; 50 mg/Kg oral, 24 h before phenyl-quinone) was 64.0%. For the same compound, the “% Temperature decrease” value ([2]; 50 mg/Kg i.p., 1 h) was 16.0%, the “% Temperature decrease” value ([2]; 50 mg/Kg i.p., 2 h) was 23.0% and the “% Temperature decrease” value ([2]; 50 mg/Kg i.p., 3 h) was 37.5%. The “% Temperature decrease” value ([2]; 50 mg/Kg per os, 1 h) was 14.0%, the “% Temperature decrease” value ([2]; 50 mg/Kg per os, 2 h) was 22.0% and the “% Temperature decrease” value ([2]; 50 mg/Kg per os, 3 h) was 31.6%. For the same compound, the “% Temperature decrease” value ([2]; 75 mg/Kg i.p., 1 h) was 22.1%, the “% Temperature decrease” value ([2]; 75 mg/Kg i.p., 2 h) was 33.4% and the “% Temperature decrease” value ([2]; 75 mg/Kg i.p., 3 h) was 39.8%. For the same compound, the “% Temperature decrease” value ([2]; 75 mg/Kg per os, 1 h) was 18.5%, the “% Temperature decrease” value ([2]; 75 mg/Kg per os, 2 h) was 23.4% and the “% Temperature decrease” value ([2]; 75 mg/Kg per os, 3 h) was 29.1%. For the same compound, the “% Temperature decrease” value ([2]; 100 mg/Kg i.p., 1 h) was 28.1%, the “% Temperature decrease” value ([2]; 100 mg/Kg i.p., 2 h) was 37.2% and the “% Temperature decrease” value ([2]; 100 mg/Kg i.p., 3 h) was 60.4%. For the same compound, the “% Temperature decrease” value ([2]; 100 mg/Kg per os, 1 h) was 22.0%, the “% Temperature decrease” value ([2]; 100 mg/Kg per os, 2 h) was 42.5% and the “% Temperature decrease” value ([2]; 100 mg/Kg per os, 3 h) was 59.0%. For the same compound, the Solubility (solubility) was “soluble in the common organic solvents”, the “% incidence/10 (head is drawing 38)” value (gastric lesions; 50 mg/Kg orally) was 6 and the “mean no. of lesions” value (gastric lesions; 50 mg/Kg orally) was 1.5. The gastric damage index (gastric lesions; 50 mg/Kg orally) was 8.5, the mean severity (gastric lesions; 50 mg/Kg orally) was 1 and the “% incidence/10 (head is drawing 38)” value (gastric lesions; 100 mg/Kg orally) was 9. For the same compound, the “mean no. of lesions” value (gastric lesions; 100 mg/Kg orally) was 2, the gastric damage index (gastric lesions; 100 mg/Kg orally) was 12.5 and the mean severity (gastric lesions; 100 mg/Kg orally) was 1.5. For the same compound, the “% incidence/10 (head is drawing 38)” value (gastric lesions; 200 mg/Kg orally) was 9, the “mean no. of lesions” value (gastric lesions; 200 mg/Kg orally) was 2 and the gastric damage index (gastric lesions; 200 mg/Kg orally) was 13. The mean severity (gastric lesions; 200 mg/Kg orally) was 2.
